Source: patent US20240409585A1, “MACROCYCLIC IMMUNOMODULATORS” (priority 2021, published 2024)
Numbered stars: 1 amine (or outer) side, 2 acyl side, 3 side chain; on linkers, the order of the positions; unused ones are H or OH. Bridge positions count the residues as written; N and C are the ends. Square brackets hold non-standard residues; d marks the D form. Peptide text beside a SMILES is read from it. * marks the point of attachment. ξ: configuration not given here. Phe(4-COOH) = N[C@@H](Cc1ccc(C(=O)O)cc1)C(=O)O; Bip = N[C@@H](Cc1ccc(-c2ccccc2)cc1)C(=O)O; Phe(3-Cl) = N[C@@H](Cc1cccc(Cl)c1)C(=O)O; Ala(2-furyl) = N[C@@H](Cc1ccco1)C(=O)O; Phe(3-Me) = Cc1cccc(C[C@H](N)C(=O)O)c1; Phe(4-F) = N[C@@H](Cc1ccc(F)cc1)C(=O)O; NMeY = CN[C@@H](Cc1ccc(O)cc1)C(=O)O; Val(3-OH) = CC(C)(O)[C@H](N)C(=O)O; X49 = O=C(C(N[*:1])C1CCOCC1)[*:2]; 4Pal = N[C@@H](Cc1ccncc1)C(=O)O; Cha = N[C@@H](CC1CCCCC1)C(=O)O; Cit = NC(=O)NCCC[C@H](N)C(=O)O; Ile(3ξ) = CCC(C)[C@H](N)C(=O)O; Thr(3ξ) = CC(O)[C@H](N)C(=O)O; Carboxymethyl = O=C(O)C*; NMeA = CN[C@@H](C)C(=O)O; Orn = NCCC[C@H](N)C(=O)O; Dab = NCC[C@H](N)C(=O)O; Dap = NC[C@H](N)C(=O)O; Piv = CC(C)(C)C(=O)*; Allyl = C=CC*

Target: T1, PE-labeled human PD-L1-Ig binding to Jurkat cell line over-expressing human PD-1 (Jurkat-PD-1) (Homo sapiens, UniProt Q15116)
T1 construct: expressed in transfected cells; host or cells: Jurkat
Assay: Jurkat-PD-1 Cell Binding High-Content Screening Assay (CBA): Method 1
Details: Jurkat-hPD-1 cells, PE-labeled PD-L1-Ig 20 nM final; read-out: Jurkat HPDL1 PD1 IC50 (uM) (Method 1)

T1 sequence (Q15116 25-288): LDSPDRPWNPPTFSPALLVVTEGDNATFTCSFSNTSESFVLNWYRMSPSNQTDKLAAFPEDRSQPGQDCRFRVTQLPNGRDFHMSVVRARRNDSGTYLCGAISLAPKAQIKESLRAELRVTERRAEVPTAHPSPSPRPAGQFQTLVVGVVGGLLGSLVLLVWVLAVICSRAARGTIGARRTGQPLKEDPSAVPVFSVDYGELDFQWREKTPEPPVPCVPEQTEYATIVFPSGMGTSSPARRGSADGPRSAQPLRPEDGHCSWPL

SMILES	IC50
Cc1cccc(C[C@@H]2NC(=O)[C@H](CC(=O)O)NC(=O)[C@H](Cc3ccc(OCC(=O)O)cc3)NC(=O)[C@H]([C@@H](C)O)NC(=O)CSC[C@@H](C(N)=O)NC(=O)[C@H](CCC(N)=O)NC(=O)[C@H](C(C)C)NC(=O)[C@H](CC3CCCCC3)NC(=O)[C@H](CC(N)=O)NC(=O)[C@@H](CC(C)C)NC(=O)[C@H](C)N(C)C(=O)[C@H](Cc3ccc(OCC(=O)O)cc3)NC(=O)[C@H](Cc3ccc(-c4ccccc4)cc3)NC(=O)[C@H](Cc3ccc(OCC(=O)O)cc3)NC2=O)c1 [Compound 1677] ({CH2CO}-TY(Carboxymethyl)D[Phe(3-Me)]Y(Carboxymethyl)[Bip]Y(Carboxymethyl)[NMeA][dL]N[Cha]VQC-NH2; thioether N-14)	0.16 µM
Cc1cccc(C[C@@H]2NC(=O)[C@H](CC(=O)O)NC(=O)[C@H](Cc3ccncc3)NC(=O)[C@H](Cc3ccc(OCC(=O)O)cc3)NC(=O)CSC[C@@H](C(=O)N[C@@H](CC(=O)O)C(N)=O)NC(=O)[C@H](CO)NC(=O)[C@H](C(C)C)NC(=O)[C@H](CC(C)C)NC(=O)[C@H](CC(N)=O)NC(=O)[C@@H](CC(C)C)NC(=O)[C@H](C)N(C)C(=O)[C@H](C(C)C)NC(=O)[C@H](Cc3ccc(-c4ccccc4)cc3)NC(=O)[C@H](CC(C)C)NC2=O)c1 [Compound 1601] ({CH2CO}-Y(Carboxymethyl)[4Pal]D[Phe(3-Me)]L[Bip]V[NMeA][dL]NLVSCD-NH2; thioether N-14)	0.02 µM
Cc1cccc(C[C@@H]2NC(=O)[C@H](CC(=O)O)NC(=O)[C@H](Cc3ccc(OCC(=O)O)cc3)NC(=O)[C@H](Cc3ccc(F)cc3)NC(=O)CSC[C@@H](C(=O)N[C@@H](CCN)C(N)=O)NC(=O)[C@H](CCC(=O)O)NC(=O)[C@H](C(C)(C)O)NC(=O)[C@H](CC3CCCCC3)NC(=O)[C@H](CCN)NC(=O)[C@@H](CC(C)C)NC(=O)[C@H](C)N(C)C(=O)[C@H](Cc3ccc(OCC(=O)O)cc3)NC(=O)[C@H](Cc3ccc(-c4ccccc4)cc3)NC(=O)[C@H](Cc3ccc(OCC(=O)O)cc3)NC2=O)c1 [Compound 2200] ({CH2CO}-[Phe(4-F)]Y(Carboxymethyl)D[Phe(3-Me)]Y(Carboxymethyl)[Bip]Y(Carboxymethyl)[NMeA][dL][Dab][Cha][Val(3-OH)]EC[Dab]-NH2; thioether N-14)	0.01 µM
CC(C)C[C@@H]1NC(=O)[C@H](CCN)NC(=O)[C@@H](CC(C)C)NC(=O)[C@H](C)N(C)C(=O)[C@H](CCCNC(N)=O)NC(=O)[C@H](Cc2ccc(-c3ccccc3)cc2)NC(=O)[C@H](C(C)C)NC(=O)[C@H](Cc2c[nH]c3ccccc23)NC(=O)[C@H](CC(=O)O)NC(=O)[C@H](Cc2ccncc2)NC(=O)[C@H](CC(N)=O)NC(=O)CSC[C@@H](C(=O)N[C@@H](C)C(N)=O)NC(=O)[C@H]([C@@H](C)O)NC(=O)[C@H](C(C)C)NC1=O [Compound 1320] ({CH2CO}-N[4Pal]DWV[Bip][Cit][NMeA][dL][Dab]LVTCA-NH2; thioether N-14)	0.02 µM
CC(C)C[C@@H]1NC(=O)[C@H](CCN)NC(=O)[C@@H](CC(C)C)NC(=O)[C@H](C)N(C)C(=O)[C@H](CCCNC(=N)N)NC(=O)[C@H](Cc2ccc(-c3ccccc3)cc2)NC(=O)[C@H](C(C)C)NC(=O)[C@H](Cc2c[nH]c3ccccc23)NC(=O)[C@H](CC(=O)O)NC(=O)[C@H](Cc2cccc(Cl)c2)NC(=O)[C@H](CC(N)=O)NC(=O)CSC[C@@H](C(=O)N[C@@H](C)C(N)=O)NC(=O)[C@H]([C@@H](C)O)NC(=O)[C@H](C(C)C)NC1=O [Compound 1316] ({CH2CO}-N[Phe(3-Cl)]DWV[Bip]R[NMeA][dL][Dab]LVTCA-NH2; thioether N-14)	0.05 µM
Cc1cccc(C[C@@H]2NC(=O)[C@H](CC(=O)O)NC(=O)[C@H](Cc3ccc(OCC(=O)O)cc3)NC(=O)[C@H](Cc3ccncc3)NC(=O)CSC[C@@H](C(=O)N[C@@H](CCN)C(N)=O)NC(=O)[C@H](CO)NC(=O)[C@H](C(C)(C)O)NC(=O)[C@H](CC3CCCCC3)NC(=O)[C@H](CCN)NC(=O)[C@@H](CC(C)C)NC(=O)[C@H](Cc3ccc(O)cc3)N(C)C(=O)[C@H](Cc3ccc(OCC(=O)O)cc3)NC(=O)[C@H](Cc3ccc(-c4ccccc4)cc3)NC(=O)[C@H](Cc3ccc(OCC(=O)O)cc3)NC2=O)c1 [Compound 1835] ({CH2CO}-[4Pal]Y(Carboxymethyl)D[Phe(3-Me)]Y(Carboxymethyl)[Bip]Y(Carboxymethyl)[NMeY][dL][Dab][Cha][Val(3-OH)]SC[Dab]-NH2; thioether N-14)	0.11 µM
Cc1cccc(C[C@@H]2NC(=O)[C@H](CC(=O)O)NC(=O)[C@H](Cc3ccc(OCC(=O)O)cc3)NC(=O)[C@H](CN)NC(=O)CSC[C@@H](C(=O)N[C@@H](CCNC(=O)C(C)(C)C)C(N)=O)NC(=O)[C@H]([C@@H](C)O)NC(=O)[C@H](C(C)C)NC(=O)[C@H](CC3CCCCC3)NC(=O)[C@H](CCN)NC(=O)[C@@H](CC(C)C)NC(=O)[C@H](C)N(C)C(=O)[C@H](Cc3ccc(OCC(=O)O)cc3)NC(=O)[C@H](Cc3ccc(-c4ccccc4)cc3)NC(=O)[C@H](Cc3ccc(OCC(=O)O)cc3)NC2=O)c1 [Compound 1866] ({CH2CO}-[Dap]Y(Carboxymethyl)D[Phe(3-Me)]Y(Carboxymethyl)[Bip]Y(Carboxymethyl)[NMeA][dL][Dab][Cha]VTC[Dab](Piv)-NH2; thioether N-14)	0.05 µM
CC(C)C[C@@H]1NC(=O)[C@H](CCN)NC(=O)[C@@H](CC(C)C)NC(=O)[C@H](C)N(C)C(=O)[C@H](C(C)C)NC(=O)[C@H](Cc2ccc(-c3ccccc3)cc2)NC(=O)[C@H](C(C)C)NC(=O)[C@H](Cc2c[nH]c3ccccc23)NC(=O)[C@H](CC(=O)O)NC(=O)[C@H](Cc2ccc(C(=O)O)cc2)NC(=O)[C@H](CC(N)=O)NC(=O)CSC[C@@H](C(=O)N[C@@H](C)C(N)=O)NC(=O)[C@H]([C@@H](C)O)NC(=O)[C@H](C(C)C)NC1=O [Compound 1378] ({CH2CO}-N[Phe(4-COOH)]DWV[Bip]V[NMeA][dL][Dab]LVTCA-NH2; thioether N-14)	0.01 µM
C=CCOc1ccc(C[C@@H]2NC(=O)[C@H](Cc3ccccc3)NC(=O)CSC[C@@H](C(=O)N[C@@H](C)C(N)=O)NC(=O)[C@H]([C@@H](C)O)NC(=O)[C@H](C(C)C)NC(=O)[C@H](CC(C)C)NC(=O)[C@H](CCCNC(=N)N)NC(=O)[C@@H](CC(C)C)NC(=O)[C@H](C)N(C)C(=O)[C@H](CCCNC(=N)N)NC(=O)[C@H](Cc3ccc(-c4ccccc4)cc3)NC(=O)[C@H](C(C)C)NC(=O)[C@H](Cc3c[nH]c4ccccc34)NC(=O)[C@H](CC(=O)O)NC2=O)cc1 [Compound 1088] ({CH2CO}-FY(Allyl)DWV[Bip]R[NMeA][dL]RLVTCA-NH2; thioether N-14)	0.41 µM
CCC(C)[C@@H]1NC(=O)[C@H](Cc2ccc(-c3ccccc3)cc2)NC(=O)[C@H](C(C)C)NC(=O)[C@H](Cc2c[nH]c3ccccc23)NC(=O)[C@H](CC(=O)O)NC(=O)[C@H](Cc2ccc(O)cc2)NC(=O)[C@H](Cc2ccco2)NC(=O)CSC[C@@H](C(=O)NC(C(N)=O)C2CCOCC2)NC(=O)[C@H](C(C)O)NC(=O)[C@H](C(C)(C)O)NC(=O)[C@H](CC2CCCCC2)NC(=O)[C@H](CC(N)=O)NC(=O)[C@@H](CC(C)C)NC(=O)[C@H](C)N(C)C1=O (stereo partly drawn) [Compound 2176] ({CH2CO}-[Ala(2-furyl)]YDWV[Bip][Ile(3ξ)][NMeA][dL]N[Cha][Val(3-OH)][Thr(3ξ)]C[X49]-NH2; thioether N-14)	0.19 µM
CC(C)C[C@@H]1NC(=O)[C@H](Cc2c[nH]c3ccccc23)NC(=O)[C@H](CC(=O)O)NC(=O)[C@H](Cc2ccc(C(=O)O)cc2)NC(=O)[C@H](Cc2cnc[nH]2)NC(=O)CSC[C@@H](C(=O)N[C@@H](C)C(N)=O)NC(=O)[C@H](CO)NC(=O)[C@H](C(C)C)NC(=O)[C@H](CC(C)C)NC(=O)[C@H](CC(N)=O)NC(=O)[C@@H](C)NC(=O)[C@H](C)N(C)C(=O)[C@H](C(C)C)NC(=O)[C@H](Cc2ccc(-c3ccccc3)cc2)NC1=O [Compound 1760] ({CH2CO}-H[Phe(4-COOH)]DWL[Bip]V[NMeA][dA]NLVSCA-NH2; thioether N-14)	0.03 µM
CC(C)C[C@@H]1NC(=O)[C@H](CCCN)NC(=O)[C@@H](CC(C)C)NC(=O)[C@H](C)N(C)C(=O)[C@H](CCCNC(=N)N)NC(=O)[C@H](Cc2ccc(-c3ccccc3)cc2)NC(=O)[C@H](C(C)C)NC(=O)[C@H](Cc2c[nH]c3ccccc23)NC(=O)[C@H](CC(=O)O)NC(=O)[C@H](Cc2ccc(OCC(=O)O)cc2)NC(=O)[C@H](Cc2ccccc2)NC(=O)CSC[C@@H](C(=O)N[C@@H](C)C(N)=O)NC(=O)[C@H]([C@@H](C)O)NC(=O)[C@H](C(C)C)NC1=O [Compound 1140] ({CH2CO}-FY(Carboxymethyl)DWV[Bip]R[NMeA][dL][Orn]LVTCA-NH2; thioether N-14)	0.03 µM
CC(C)C[C@H]1NC(=O)[C@H](C)N(C)C(=O)[C@H](CCCNC(=N)N)NC(=O)[C@H](Cc2ccc(-c3ccccc3)cc2)NC(=O)[C@H](C(C)C)NC(=O)[C@H](Cc2c[nH]c3ccccc23)NC(=O)[C@H](CC(=O)O)NC(=O)[C@H](Cc2ccc(O)cc2)NC(=O)[C@H](CC(N)=O)NC(=O)CSC[C@@H](C(=O)N[C@@H](C)C(N)=O)NC(=O)[C@H]([C@@H](C)O)NC(=O)[C@H](C(C)C)NC(=O)[C@H](CC2CCCCC2)NC(=O)[C@H](CCCNC(=N)N)NC1=O [Compound 1275] ({CH2CO}-NYDWV[Bip]R[NMeA][dL]R[Cha]VTCA-NH2; thioether N-14)	0.03 µM
Cc1cccc(C[C@@H]2NC(=O)[C@H](Cc3ccncc3)NC(=O)CSC[C@@H](C(=O)NCC(N)=O)NC(=O)[C@H](CO)NC(=O)[C@H](C(C)C)NC(=O)[C@H](CC(C)C)NC(=O)[C@H](CC(N)=O)NC(=O)[C@@H](CC(C)C)NC(=O)[C@H](C)N(C)C(=O)[C@H](C(C)C)NC(=O)[C@H](Cc3ccc(-c4ccccc4)cc3)NC(=O)[C@H](CC(C)C)NC(=O)[C@H](Cc3c[nH]c4ccccc34)NC(=O)[C@H](CC(=O)O)NC2=O)c1 [Compound 1519] ({CH2CO}-[4Pal][Phe(3-Me)]DWL[Bip]V[NMeA][dL]NLVSCG-NH2; thioether N-14)	0.02 µM
